From ChEMBL document CHEMBL1155798, “Enhanced affinity of ketotifen toward tamarind seed polysaccharide in comparison with hydroxyethylcellulose and hyaluronic acid: a nuclear magnetic resonance investigation” (Bioorg Med Chem, 2008)
Activity calls are given as the source filed them. No cut-off for these calls is given here.

Experiments:
Tamarindus indica [1] = test: Binding affinity to tamarind seed polysaccharide by NMR
Tamarindus indica [2] = test: Binding affinity to tamarind seed polysaccharide by dynamic dialysis

Compound: CN1CCC(=C2c3ccccc3CC(=O)c3sccc32)CC1
- Activity (Tamarindus indica [1]): Active
- Activity (Tamarindus indica [2]): Active
